According to the NIST ThermoML archive (doi:10.1021/je3007474):

Assay: xn = mol fraction of the nth substance listed
Conditions: 101 kPa, Liquid; for viscosity: Falling or rolling sphere viscometry; for mass density: Vibrating tube method

CCCCn1cc[n+](C)c1C.F[B-](F)(F)F [1-butyl-2,3-dimethylimidazolium tetrafluoroborate] + CC#N
Conditions	mass density [kg/m3]	viscosity [mPa·s]
298.15 K, x1 = 0.1118	919.74	1.045
298.15 K, x1 = 0.1536	957.71	–
298.15 K, x1 = 0.2247	1008.5	2.637
298.15 K, x1 = 0.3784	1079.62	8.933
298.15 K, x1 = 0.4601	1104.79	–
298.15 K, x1 = 0.5515	1127.21	32.3
298.15 K, x1 = 0.666	1149.45	67.72
298.15 K, x1 = 0.7581	1163.71	143.9
298.15 K, x1 = 0.8423	1174.52	241.4
298.15 K, x1 = 1	1193.19	650
303.15 K, x1 = 0.1118	915.06	0.982
303.15 K, x1 = 0.1536	953.22	–
303.15 K, x1 = 0.2247	1004.26	2.438
303.15 K, x1 = 0.3784	1075.69	7.746
303.15 K, x1 = 0.4601	1100.98	–
303.15 K, x1 = 0.5515	1123.51	26.37
303.15 K, x1 = 0.666	1145.88	52.92
303.15 K, x1 = 0.7581	1160.23	108.2
303.15 K, x1 = 0.8423	1171.09	176.3
303.15 K, x1 = 1	1189.8	447
313.15 K, x1 = 0.1118	905.7	0.873
313.15 K, x1 = 0.1536	944.25	–
313.15 K, x1 = 0.2247	995.79	2.071
313.15 K, x1 = 0.3784	1067.89	5.997
313.15 K, x1 = 0.4601	1093.41	–
313.15 K, x1 = 0.5515	1116.15	18.33
313.15 K, x1 = 0.666	1138.75	34.34
313.15 K, x1 = 0.7581	1153.24	65.14
313.15 K, x1 = 0.8423	1164.22	102.2
313.15 K, x1 = 1	1183.02	232.9
323.15 K, x1 = 0.1118	896.31	0.783
323.15 K, x1 = 0.1536	935.27	–
323.15 K, x1 = 0.2247	987.34	1.781
323.15 K, x1 = 0.3784	1060.12	4.784
323.15 K, x1 = 0.4601	1085.88	–
323.15 K, x1 = 0.5515	1108.85	13.36
323.15 K, x1 = 0.666	1131.67	23.63
323.15 K, x1 = 0.7581	1146.32	42.26
323.15 K, x1 = 0.8423	1157.4	63.15
323.15 K, x1 = 1	1176.38	132.8
333.15 K, x1 = 0.1118	886.87	0.714
333.15 K, x1 = 0.1536	926.27	–
333.15 K, x1 = 0.2247	978.89	1.551
333.15 K, x1 = 0.3784	1052.37	3.914
333.15 K, x1 = 0.4601	1078.37	–
333.15 K, x1 = 0.5515	1101.56	10.11
333.15 K, x1 = 0.666	1124.62	17.06
333.15 K, x1 = 0.7581	1139.41	28.89
333.15 K, x1 = 0.8423	1150.59	41.76
333.15 K, x1 = 1	1169.82	81.53
343.15 K, x1 = 0.1118	877.39	0.572
343.15 K, x1 = 0.1536	917.25	–
343.15 K, x1 = 0.2247	970.44	1.369
343.15 K, x1 = 0.3784	1044.64	3.264
343.15 K, x1 = 0.4601	1070.89	–
343.15 K, x1 = 0.5515	1094.31	7.897
343.15 K, x1 = 0.666	1117.6	12.79
343.15 K, x1 = 0.7581	1132.51	20.7
343.15 K, x1 = 0.8423	1143.79	30
343.15 K, x1 = 1	1163.26	53.99

CCCCn1cc[n+](C)c1C.F[B-](F)(F)F [1-butyl-2,3-dimethylimidazolium tetrafluoroborate] + C[S+](C)[O-]
Conditions	mass density [kg/m3]	viscosity [mPa·s]
298.15 K, x1 = 0.138	1128.27	5.197
298.15 K, x1 = 0.2292	1142.83	9.384
298.15 K, x1 = 0.3151	1153.4	16.2
298.15 K, x1 = 0.4079	1162.44	28.31
298.15 K, x1 = 0.5334	1172.17	60.17
298.15 K, x1 = 0.6374	1178.33	108.3
298.15 K, x1 = 0.7004	1181.74	160.1
298.15 K, x1 = 0.7952	1185.94	–
298.15 K, x1 = 0.8785	1189.03	370.4
298.15 K, x1 = 1	1193.19	650
303.15 K, x1 = 0.138	1123.85	4.594
303.15 K, x1 = 0.2292	1138.65	8.077
303.15 K, x1 = 0.3151	1149.37	13.58
303.15 K, x1 = 0.4079	1158.58	23.32
303.15 K, x1 = 0.5334	1168.48	47.09
303.15 K, x1 = 0.6374	1174.75	82.19
303.15 K, x1 = 0.7004	1178.22	119.4
303.15 K, x1 = 0.7952	1182.45	–
303.15 K, x1 = 0.8785	1185.53	263.2
303.15 K, x1 = 1	1189.8	447
313.15 K, x1 = 0.138	1115.07	3.654
313.15 K, x1 = 0.2292	1130.35	6.142
313.15 K, x1 = 0.3151	1141.4	9.873
313.15 K, x1 = 0.4079	1150.89	15.99
313.15 K, x1 = 0.5334	1161.12	30.51
313.15 K, x1 = 0.6374	1167.61	50.32
313.15 K, x1 = 0.7004	1171.2	70.58
313.15 K, x1 = 0.7952	1175.55	–
313.15 K, x1 = 0.8785	1178.68	144.9
313.15 K, x1 = 1	1183.02	232.9
323.15 K, x1 = 0.138	1106.3	2.981
323.15 K, x1 = 0.2292	1122.07	4.831
323.15 K, x1 = 0.3151	1133.47	7.481
323.15 K, x1 = 0.4079	1143.24	11.64
323.15 K, x1 = 0.5334	1153.77	20.96
323.15 K, x1 = 0.6374	1160.48	33.05
323.15 K, x1 = 0.7004	1164.2	44.88
323.15 K, x1 = 0.7952	1168.71	–
323.15 K, x1 = 0.8785	1171.96	86.55
323.15 K, x1 = 1	1176.38	132.8
333.15 K, x1 = 0.138	1097.56	2.49
333.15 K, x1 = 0.2292	1113.83	3.906
333.15 K, x1 = 0.3151	1125.56	5.851
333.15 K, x1 = 0.4079	1135.62	8.806
333.15 K, x1 = 0.5334	1146.46	15.18
333.15 K, x1 = 0.6374	1153.38	22.96
333.15 K, x1 = 0.7004	1157.22	30.3
333.15 K, x1 = 0.7952	1161.88	–
333.15 K, x1 = 0.8785	1165.23	55.64
333.15 K, x1 = 1	1169.82	81.53
343.15 K, x1 = 0.138	1088.84	2.115
343.15 K, x1 = 0.2292	1105.61	3.23
343.15 K, x1 = 0.3151	1117.7	4.708
343.15 K, x1 = 0.4079	1128.03	6.868
343.15 K, x1 = 0.5334	1139.19	11.46
343.15 K, x1 = 0.6374	1146.31	16.7
343.15 K, x1 = 0.7004	1150.26	21.53
343.15 K, x1 = 0.7952	1155.06	–
343.15 K, x1 = 0.8785	1158.52	37.74
343.15 K, x1 = 1	1163.26	53.99
353.15 K, x1 = 0.138	1080.12	1.826
353.15 K, x1 = 0.2292	1097.41	2.724
353.15 K, x1 = 0.3151	1109.86	3.873
353.15 K, x1 = 0.4079	1120.49	5.501
353.15 K, x1 = 0.5334	1131.96	8.897
353.15 K, x1 = 0.6374	1139.27	12.73
353.15 K, x1 = 0.7004	1143.34	16.03
353.15 K, x1 = 0.7952	1148.27	–
353.15 K, x1 = 0.8785	1151.83	26.75
353.15 K, x1 = 1	1156.71	37.13
